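Five concentrations, 48 hours, 96-well plates. Here, GI50 denotes the concentration required for 50% inhibition of growth.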 Active and inactive are the calls of the source. No stated cut-off is given here; in the data, active = GI50 up to about 1.1 µM and inactive = higher.
Legend:
Experiment in all cases: inhibition of tumour cell growth, NCI panel, 48 h
SK-OV-3 = system: SK-OV-3
RPMI-8226 = system: RPMI-8226
MCF7 = system: MCF7
NCI/ADR-RES = system: NCI/ADR-RES
PC-3 = system: PC-3
MDA-N = system: MDA-N
NCI-H460 = system: NCI-H460
T47D = system: T47D
786-0 = system: 786-0
HOP-62 = system: HOP-62
NCI-H226 = system: NCI-H226
LOX IMVI = system: LOX IMVI
SR = system: SR
BT-549 = system: BT-549
EKVX = system: EKVX
DLD-1 = system: DLD-1
M19-MEL = system: M19-MEL
KM-20L2 = system: KM-20L2
HOP-18 = system: HOP-18
MDA-MB-435 = system: MDA-MB-435

Row | SMILES | GI50 (SK-OV-3) | GI50 (RPMI-8226) | GI50 (MCF7) | GI50 (NCI/ADR-RES) | GI50 (PC-3) | GI50 (MDA-N) | GI50 (NCI-H460) | GI50 (T47D) | GI50 (786-0) | GI50 (HOP-62) | GI50 (NCI-H226) | GI50 (LOX IMVI) | GI50 (SR) | GI50 (BT-549) | GI50 (EKVX) | GI50 (DLD-1) | GI50 (M19-MEL) | GI50 (KM-20L2) | GI50 (HOP-18) | GI50 (MDA-MB-435)
1 | O=c1c2c3c(sc2nc(CN2CCNCC2)n1-c1ccccc1)CCCC3 | > 100 µM (inactive) | > 100 µM (inactive) | > 100 µM (inactive) | > 100 µM (inactive) | > 100 µM (inactive) | 89.1 µM (inactive) | > 100 µM (inactive) | 99.5 µM (inactive) | > 100 µM (inactive) | > 100 µM (inactive) | > 100 µM (inactive) | > 100 µM (inactive) | > 100 µM (inactive) | > 100 µM (inactive) | > 100 µM (inactive) | – | – | – | – | –
2 | Cc1c2ccncc2cc2c1[nH]c1ccccc12 | 5.65 µM (inactive) | 3.07 µM (inactive) | 1.57 µM (inactive) | 3.01 µM (inactive) | – | – | 1.77 µM (inactive) | – | – | 8.71 µM (inactive) | 6.14 µM (inactive) | 2.33 µM (inactive) | – | – | 4.4 µM (inactive) | 5.01 µM (inactive) | 3.81 µM (inactive) | 3.37 µM (inactive) | 0.789 µM (active) | –
3 | N#CC1(CCCI)CCCC1 | 64.4 µM (inactive) | – | – | – | – | – | 2.92 µM (inactive) | – | – | – | – | 3.76 µM (inactive) | 15.4 µM (inactive) | – | 47.4 µM (inactive) | 19.1 µM (inactive) | 5.36 µM (inactive) | 22.6 µM (inactive) | 13.5 µM (inactive) | –
4 | COC1OC(=O)[C@H]2O[N+]([O-])=C(C)[C@@H]12 (stereo partly specified) | > 100 µM (inactive) | > 100 µM (inactive) | > 100 µM (inactive) | > 100 µM (inactive) | – | – | > 100 µM (inactive) | – | – | > 100 µM (inactive) | > 73.5 µM (inactive) | > 100 µM (inactive) | – | – | > 100 µM (inactive) | > 100 µM (inactive) | > 100 µM (inactive) | > 100 µM (inactive) | > 100 µM (inactive) | –
5 | Cc1cc(N(CCC#N)S(=O)(=O)c2ccccc2)ccc1/C=N\c1cccc(C(=O)O)c1 | > 100 µM (inactive) | > 100 µM (inactive) | – | – | – | – | > 100 µM (inactive) | – | – | > 100 µM (inactive) | > 100 µM (inactive) | – | – | – | > 100 µM (inactive) | – | > 100 µM (inactive) | > 100 µM (inactive) | > 100 µM (inactive) | –
6 | CCOC(=O)CSc1c(C(=O)OCC)c(=O)n(-c2ccccc2)c(=S)n1-c1ccccc1 | 89.5 µM (inactive) | 37.5 µM (inactive) | 15.2 µM (inactive) | 2.99 µM (inactive) | 4.61 µM (inactive) | > 100 µM (inactive) | 21.6 µM (inactive) | > 100 µM (inactive) | 85.5 µM (inactive) | > 100 µM (inactive) | 36.5 µM (inactive) | 15.6 µM (inactive) | 13.7 µM (inactive) | 8.49 µM (inactive) | 62.8 µM (inactive) | – | – | – | – | 41.6 µM (inactive)
7 | CCCCc1c2c(nc3c1CCc1cc4cc5c(nc4nc1-3)-c1nc3c(c(CCCC)c1CC5)CCC/C3=C\c1ccccc1)/C(=C/c1ccccc1)CCC2 | > 100 µM (inactive) | > 100 µM (inactive) | – | – | – | – | > 100 µM (inactive) | – | > 100 µM (inactive) | > 100 µM (inactive) | > 100 µM (inactive) | > 100 µM (inactive) | > 100 µM (inactive) | – | > 100 µM (inactive) | > 100 µM (inactive) | – | > 100 µM (inactive) | – | –
8 | CN(C)c1n/c(=N/c2ccc(/N=c3\nc(N(C)C)ss3)cc2)ss1 | > 100 µM (inactive) | 9.68 µM (inactive) | – | – | – | – | 30.2 µM (inactive) | – | 63.7 µM (inactive) | > 100 µM (inactive) | 56.5 µM (inactive) | > 44.8 µM (inactive) | 6.01 µM (inactive) | – | > 74.8 µM (inactive) | 13.4 µM (inactive) | 20.3 µM (inactive) | 48.3 µM (inactive) | 54 µM (inactive) | –
9 | COc1ccc(NCC(=O)Nn2c(-c3ccccc3)nc3ccccc3c2=O)cc1 | > 100 µM (inactive) | 24.2 µM (inactive) | 18.2 µM (inactive) | 25.2 µM (inactive) | 35.6 µM (inactive) | 63.4 µM (inactive) | 51.1 µM (inactive) | 29.9 µM (inactive) | 25.6 µM (inactive) | 86.1 µM (inactive) | > 100 µM (inactive) | 19.6 µM (inactive) | 35.8 µM (inactive) | 23.3 µM (inactive) | 69.2 µM (inactive) | – | – | – | – | 51.8 µM (inactive)
10 | CCN(CC)CCCC(C)Nc1cc(-c2ccccc2)nc2cc(OC)ccc12 (stereo unspecified) | 16.3 µM (inactive) | 2.07 µM (inactive) | – | – | – | – | 2.92 µM (inactive) | – | – | 5.25 µM (inactive) | – | – | 2.71 µM (inactive) | – | – | – | 10.1 µM (inactive) | 2.25 µM (inactive) | – | –
11 | CCOC(=O)Nc1ccc(S(=O)(=O)NCCCl)cc1.CCOC(=O)Nc1ccc(S(=O)(=O)NCCCl)cc1.O=C(O)c1ccc(/N=N/Cl)cc1O | > 100 µM (inactive) | – | – | – | – | – | – | – | – | > 100 µM (inactive) | > 100 µM (inactive) | – | > 100 µM (inactive) | – | > 100 µM (inactive) | > 100 µM (inactive) | > 100 µM (inactive) | > 100 µM (inactive) | > 100 µM (inactive) | –
